Data taken from paper PMC4664966, “Discovery and characterization of novel inhibitors of the sodium-coupled citrate transporter (NaCT or SLC13A5)” (Scientific Reports, 2015).
≈ marks a conversion by molar mass, not a printed value.

How the values were obtained:
NaDC3 (SLC13A3) = biological target: T1, NaDC3 (SLC13A3) (Homo sapiens, UniProt Q8WWT9); test: Inhibition of citrate or succinate uptake in HEKNaDC3 cells; assay type: cell-based
T1 construct: host or cells: HEK-293, transient (Fugene HD)
T1 sequence (Q8WWT9 1-602): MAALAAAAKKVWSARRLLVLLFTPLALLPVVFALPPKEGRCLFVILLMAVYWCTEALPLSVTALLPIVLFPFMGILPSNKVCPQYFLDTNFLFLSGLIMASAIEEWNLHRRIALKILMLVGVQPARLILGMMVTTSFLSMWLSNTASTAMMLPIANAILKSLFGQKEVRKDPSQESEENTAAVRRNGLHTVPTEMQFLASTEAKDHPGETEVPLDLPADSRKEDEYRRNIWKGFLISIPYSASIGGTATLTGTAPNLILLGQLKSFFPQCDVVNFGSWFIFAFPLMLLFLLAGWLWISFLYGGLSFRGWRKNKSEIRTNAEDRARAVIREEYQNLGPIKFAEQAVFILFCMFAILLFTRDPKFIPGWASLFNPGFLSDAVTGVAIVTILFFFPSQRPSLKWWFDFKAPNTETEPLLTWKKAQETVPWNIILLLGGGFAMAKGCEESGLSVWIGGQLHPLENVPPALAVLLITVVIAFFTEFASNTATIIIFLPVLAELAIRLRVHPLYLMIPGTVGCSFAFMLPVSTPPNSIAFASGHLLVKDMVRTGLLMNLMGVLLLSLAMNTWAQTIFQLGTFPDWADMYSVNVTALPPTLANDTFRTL
Excerpt: Protocols to generate the stable cell line overexpressing NaCT or cell transfection with SLC13A2 or SLC13A3 can be found in the supporting information. HEK-293 cells stably transfected with the human sodium Citrate transporter SLC13A5 or transiently transfected with the human SLC13A2 or SLC13A3 transporter were removed from the flasks with dissociation buffer and re-suspended in an equal volume of growth media (DMEM, High Glucose supplemented with 10% heat inactivated fetal bovine serum and 500 μg/ml Geneticin). For the transient transfections, Geneticin was eliminated from the media. Cell suspensions were centrifuged at 1,000 rpm for approximately 5 minutes. Resulting cell pellets were re-suspended in growth media and placed in a 37 °C water bath for approximately 10 minutes prior to a final spin at 1,000 rpm. Following this spin the resulting cell pellets were re-suspended in assay buffer, 142 mM NaCl (or 142 mM choline chloride), 5 mM KCl, 1.2 mM MgSO4, 1.5 mM CaCl, 5 mM glucose and 25 mM HEPES pH 7.4. Cell suspensions were counted and the concentration adjusted as needed with assay buffer to 2e[6] viable cells /mL. 20 μL of cell suspension were added to 384-well cyotstar-T plates followed by the addition of 5 μL of 10× concentration of compound. Cells and compound were incubated at 37 °C for approximately 30 minutes prior to the addition of 25 μL of 300 μM citric acid (16 μM radiolabeled [^14C]-citric acid and 284 μM cold citric acid) to make a 150 μM final concentration of citric acid or 21 μM [^14C]-succinic acid. After substrate addition, the uptake of radioactivity was monitored on Perkin Elmer Microbeta plate reader. Data from reads between 45–90 minutes was used to assess the ability of test compounds to inhibit the uptake of citric or succinic acid. […]
were plated, and incubated for 48 hours. Following the incubation, NaDC1 and NaDC3 assays were executed identical to the procedure for NaCT. […]
The solution was heated to reflux until the total volume was reduced to ~25 mL. […]

[1] = Passive permeability, MDCK-LE cell monolayer; assay type: in vitro ADME; settings: dog; MDCK-LE cell monolayer; read-out: Papp (apparent passive permeability)
Description: Passive permeability was assessed using MDCK-LE cell monolayer as described previously in Di et al., (2011)[44].

Aqueous solubility = assay type: physicochemical; settings: aqueous medium at pH 7.4, pH 7.4, aqueous buffer; read-out: Solubility7.4
ATP-citrate lyase = ATP-citrate lyase (Homo sapiens, UniProt P53396); test: ATP-citrate lyase interaction/inhibition; assay type: biochemical
CYP3A4 = CYP3A4 (Homo sapiens, UniProt P08684); test: Selectivity data (Table S1); assay type: in vitro ADME; settings: 3 µM
[2] = biological target: Cytochrome P450 3A4 (CYP3A4) (Homo sapiens, UniProt P08684); test: Selectivity data (Table S1); assay type: in vitro ADME
[3] = biological target: Phosphodiesterase 3B (PDE3B) (Homo sapiens, UniProt Q13370); test: Selectivity data (Table S1); assay type: biochemical
Chain of Phosphodiesterase 3B (PDE3B) (Q13370 whole entry): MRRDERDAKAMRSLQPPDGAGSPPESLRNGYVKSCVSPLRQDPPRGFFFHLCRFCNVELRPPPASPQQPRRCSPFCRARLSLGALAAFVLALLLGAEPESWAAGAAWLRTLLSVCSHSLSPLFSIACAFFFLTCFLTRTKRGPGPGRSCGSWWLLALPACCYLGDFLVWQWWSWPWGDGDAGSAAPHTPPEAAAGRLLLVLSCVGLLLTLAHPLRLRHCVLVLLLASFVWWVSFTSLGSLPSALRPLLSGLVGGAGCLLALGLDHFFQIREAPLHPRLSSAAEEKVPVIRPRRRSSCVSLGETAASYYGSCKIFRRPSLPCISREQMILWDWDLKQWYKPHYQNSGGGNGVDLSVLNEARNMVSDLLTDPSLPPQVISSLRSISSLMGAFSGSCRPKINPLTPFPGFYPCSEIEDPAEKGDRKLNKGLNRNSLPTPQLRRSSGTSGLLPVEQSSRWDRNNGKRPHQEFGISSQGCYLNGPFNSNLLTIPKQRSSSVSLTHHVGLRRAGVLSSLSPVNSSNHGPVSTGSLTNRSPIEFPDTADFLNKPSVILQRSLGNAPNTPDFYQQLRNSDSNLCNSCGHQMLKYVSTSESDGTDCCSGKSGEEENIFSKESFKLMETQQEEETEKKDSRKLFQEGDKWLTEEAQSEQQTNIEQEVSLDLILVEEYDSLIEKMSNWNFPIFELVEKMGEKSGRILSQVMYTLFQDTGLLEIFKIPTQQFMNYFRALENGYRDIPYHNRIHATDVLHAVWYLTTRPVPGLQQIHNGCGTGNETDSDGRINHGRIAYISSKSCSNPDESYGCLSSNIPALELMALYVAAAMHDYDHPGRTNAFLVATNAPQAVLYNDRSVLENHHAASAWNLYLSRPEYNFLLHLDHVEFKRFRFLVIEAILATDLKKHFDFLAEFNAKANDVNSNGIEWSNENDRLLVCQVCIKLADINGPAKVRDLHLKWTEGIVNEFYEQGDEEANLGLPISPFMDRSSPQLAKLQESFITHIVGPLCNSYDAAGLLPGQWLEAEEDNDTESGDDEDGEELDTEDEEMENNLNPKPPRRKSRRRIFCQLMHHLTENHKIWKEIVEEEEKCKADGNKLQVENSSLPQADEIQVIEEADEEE

[4] = biological target: Sodium channel, neuronal alpha-subunit (NaV1.1) (Homo sapiens, UniProt P35498); test: Selectivity data (Table S1)
[5] = biological target: Adrenergic receptor, alpha-1A (ADRA1A) (Homo sapiens, UniProt P35348); test: Selectivity data (Table S1); assay type: binding
Chain of Adrenergic receptor, alpha-1A (ADRA1A) (P35348 whole entry): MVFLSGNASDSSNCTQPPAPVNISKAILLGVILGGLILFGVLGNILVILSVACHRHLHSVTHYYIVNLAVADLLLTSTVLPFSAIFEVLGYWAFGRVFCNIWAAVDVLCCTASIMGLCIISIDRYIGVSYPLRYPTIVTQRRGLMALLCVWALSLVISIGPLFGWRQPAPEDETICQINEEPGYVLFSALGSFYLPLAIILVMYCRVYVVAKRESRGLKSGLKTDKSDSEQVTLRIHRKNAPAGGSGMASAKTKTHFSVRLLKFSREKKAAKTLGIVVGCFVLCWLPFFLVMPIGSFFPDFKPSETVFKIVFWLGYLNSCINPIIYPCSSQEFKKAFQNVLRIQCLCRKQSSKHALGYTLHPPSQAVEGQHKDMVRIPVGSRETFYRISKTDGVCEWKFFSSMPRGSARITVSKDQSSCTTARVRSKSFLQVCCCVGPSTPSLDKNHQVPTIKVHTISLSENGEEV

[6] = biological target: Gamma-aminobutyric acid receptor A, alpha 1 (GABRA1) (Homo sapiens, UniProt P14867+P47870); test: Selectivity data (Table S1); assay type: binding
Chain of Gamma-aminobutyric acid receptor A, alpha 1 (GABRA1) (P14867 28-456): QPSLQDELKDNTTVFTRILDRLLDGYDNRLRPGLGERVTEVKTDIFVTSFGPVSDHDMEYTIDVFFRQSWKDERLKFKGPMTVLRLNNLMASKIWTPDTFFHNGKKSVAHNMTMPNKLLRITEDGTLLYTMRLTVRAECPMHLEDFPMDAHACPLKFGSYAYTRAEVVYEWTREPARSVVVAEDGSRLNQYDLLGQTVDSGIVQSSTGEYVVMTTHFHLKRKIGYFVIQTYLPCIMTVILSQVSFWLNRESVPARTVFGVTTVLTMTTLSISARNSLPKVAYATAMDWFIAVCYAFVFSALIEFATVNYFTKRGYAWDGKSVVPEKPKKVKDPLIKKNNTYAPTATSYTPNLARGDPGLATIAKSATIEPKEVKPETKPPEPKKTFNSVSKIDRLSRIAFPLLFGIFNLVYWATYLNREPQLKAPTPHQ
Chain of Gamma-aminobutyric acid receptor A, alpha 1 (GABRA1) (P47870 25-512 limits assumed): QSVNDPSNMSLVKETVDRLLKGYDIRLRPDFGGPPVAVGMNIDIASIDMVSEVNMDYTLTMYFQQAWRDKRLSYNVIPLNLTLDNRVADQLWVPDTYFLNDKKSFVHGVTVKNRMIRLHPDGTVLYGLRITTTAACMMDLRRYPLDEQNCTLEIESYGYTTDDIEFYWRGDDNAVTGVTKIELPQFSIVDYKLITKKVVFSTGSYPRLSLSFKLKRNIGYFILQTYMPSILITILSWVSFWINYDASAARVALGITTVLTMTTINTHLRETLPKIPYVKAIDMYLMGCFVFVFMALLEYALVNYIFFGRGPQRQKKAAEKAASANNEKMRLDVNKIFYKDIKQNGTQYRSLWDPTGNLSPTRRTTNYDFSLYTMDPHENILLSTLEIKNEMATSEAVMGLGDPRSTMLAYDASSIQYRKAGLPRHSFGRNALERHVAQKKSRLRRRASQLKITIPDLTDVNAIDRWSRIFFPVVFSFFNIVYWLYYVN
Chain of Gamma-aminobutyric acid receptor A, alpha 1 (GABRA1) (P18507 40-475 partner): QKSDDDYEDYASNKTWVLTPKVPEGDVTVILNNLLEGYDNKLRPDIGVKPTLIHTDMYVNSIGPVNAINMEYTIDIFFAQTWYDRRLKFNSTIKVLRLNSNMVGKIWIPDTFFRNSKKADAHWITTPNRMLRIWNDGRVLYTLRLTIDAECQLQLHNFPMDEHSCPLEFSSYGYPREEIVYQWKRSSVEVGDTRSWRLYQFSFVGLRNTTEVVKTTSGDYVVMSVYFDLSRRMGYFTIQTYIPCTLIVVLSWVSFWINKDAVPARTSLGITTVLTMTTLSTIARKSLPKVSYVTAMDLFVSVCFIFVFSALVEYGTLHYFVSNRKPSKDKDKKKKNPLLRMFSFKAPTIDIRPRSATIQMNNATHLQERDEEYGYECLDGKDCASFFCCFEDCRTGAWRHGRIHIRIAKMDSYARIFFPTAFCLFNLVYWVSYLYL

[7] = biological target: Glucocorticoid receptor (GR) (Homo sapiens, UniProt P04150); test: Selectivity data (Table S1); assay type: binding
Chain of Glucocorticoid receptor (GR) (P04150 whole entry): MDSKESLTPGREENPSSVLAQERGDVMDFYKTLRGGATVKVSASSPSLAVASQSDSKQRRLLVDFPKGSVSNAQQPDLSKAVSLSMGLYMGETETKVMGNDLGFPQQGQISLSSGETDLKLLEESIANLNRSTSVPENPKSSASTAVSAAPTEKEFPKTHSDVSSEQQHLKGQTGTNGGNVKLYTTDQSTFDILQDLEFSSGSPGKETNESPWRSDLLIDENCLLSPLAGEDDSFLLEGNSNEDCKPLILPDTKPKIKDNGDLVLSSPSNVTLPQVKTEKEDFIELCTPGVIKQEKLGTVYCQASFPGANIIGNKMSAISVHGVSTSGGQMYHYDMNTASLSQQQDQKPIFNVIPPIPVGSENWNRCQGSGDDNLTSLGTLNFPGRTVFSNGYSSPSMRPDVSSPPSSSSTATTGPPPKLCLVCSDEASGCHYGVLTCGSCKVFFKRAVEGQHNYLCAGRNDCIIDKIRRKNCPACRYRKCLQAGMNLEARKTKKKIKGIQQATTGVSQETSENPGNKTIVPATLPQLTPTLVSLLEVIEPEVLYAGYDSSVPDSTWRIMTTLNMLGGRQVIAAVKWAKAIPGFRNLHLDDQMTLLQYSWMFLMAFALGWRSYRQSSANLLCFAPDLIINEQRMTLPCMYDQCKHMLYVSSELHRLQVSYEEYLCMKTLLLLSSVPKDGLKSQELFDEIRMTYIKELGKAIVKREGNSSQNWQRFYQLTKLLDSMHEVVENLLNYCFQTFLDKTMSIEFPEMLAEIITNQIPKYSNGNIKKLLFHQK

[8] = biological target: Muscarinic acetylcholine receptor 2 (M2) (Homo sapiens, UniProt P08172); test: Selectivity data (Table S1); assay type: binding
Chain of Muscarinic acetylcholine receptor 2 (M2) (P08172 whole entry): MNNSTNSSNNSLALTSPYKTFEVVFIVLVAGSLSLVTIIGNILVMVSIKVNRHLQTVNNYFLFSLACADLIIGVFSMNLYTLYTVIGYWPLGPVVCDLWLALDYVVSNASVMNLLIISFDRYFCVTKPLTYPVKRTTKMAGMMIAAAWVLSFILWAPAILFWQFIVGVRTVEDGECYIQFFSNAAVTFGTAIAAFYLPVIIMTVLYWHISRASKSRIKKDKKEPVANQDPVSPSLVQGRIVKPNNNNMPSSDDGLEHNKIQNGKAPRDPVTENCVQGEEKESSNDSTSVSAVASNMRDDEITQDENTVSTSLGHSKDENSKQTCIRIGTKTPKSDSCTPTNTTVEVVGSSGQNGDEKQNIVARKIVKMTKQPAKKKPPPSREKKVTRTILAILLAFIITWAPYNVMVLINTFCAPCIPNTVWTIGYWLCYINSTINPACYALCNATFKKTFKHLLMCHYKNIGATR

[9] = biological target: Serotonin receptor 2A (5-HT2A) (Homo sapiens, UniProt P28223); test: Selectivity data (Table S1); assay type: binding
Chain of Serotonin receptor 2A (5-HT2A) (P28223 whole entry): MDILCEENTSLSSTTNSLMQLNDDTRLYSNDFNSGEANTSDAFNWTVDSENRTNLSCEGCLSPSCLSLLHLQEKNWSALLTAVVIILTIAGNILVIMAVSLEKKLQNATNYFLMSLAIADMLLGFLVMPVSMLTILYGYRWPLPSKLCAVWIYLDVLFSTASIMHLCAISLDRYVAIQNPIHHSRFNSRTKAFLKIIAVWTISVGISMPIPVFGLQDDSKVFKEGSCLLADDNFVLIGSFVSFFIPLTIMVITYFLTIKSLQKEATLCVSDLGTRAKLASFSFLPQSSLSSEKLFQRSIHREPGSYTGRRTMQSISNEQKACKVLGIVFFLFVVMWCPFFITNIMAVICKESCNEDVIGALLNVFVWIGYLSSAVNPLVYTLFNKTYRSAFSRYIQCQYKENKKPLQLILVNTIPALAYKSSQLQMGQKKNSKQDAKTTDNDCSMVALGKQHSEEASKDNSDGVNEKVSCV

[10] = biological target: Sodium channel, type V, alpha-subunit (NaV1.5) (Homo sapiens, UniProt Q14524); test: Selectivity data (Table S1)

In the case of `CC(C)(C)c1ccc(CC[C@@](O)(CC(=O)O)C(=O)O)cc1` [Compound 2], the “inhibition of citrate or succinate uptake, NaDC3” value (NaDC3 (SLC13A3); HEK-293-derived system overexpressing NaDC3) is reported as “No measurable inhibition”, the IC50 (NaDC3 (SLC13A3); compound 4: mean of 2 replicates) is reported as greater than 100 µM and the Papp [1] is reported as 1.4 ×10⁻⁶ cm/s. For the same compound, the solubility (Aqueous solubility) was 33 mM (≈ 9710 µg/mL), the genetic toxicity (Genetic toxicity assays) was “negative” and the “interaction/inhibition of ATP-citrate lyase” value (ATP-citrate lyase) was “no significant interaction/inhibition”. For the same compound, the inhibition at 3 µM (CYP3A4) was 12%, the “interaction/inhibition of CYP3A4” value [2] was “no significant interaction/inhibition” and the inhibition at 100 µM [3] was less than 10%. For the same compound, the inhibition at 10 µM [4] was less than 10%, the inhibition at 100 µM [5] was less than 10% and the inhibition at 100 µM [6] was less than 10%. For the same compound, the inhibition at 100 µM [7] was less than 10%, the inhibition at 100 µM [8] was less than 10% and the inhibition at 100 µM [9] was less than 10%. The inhibition at 10 µM [10] was less than 10%.
